Experimental data taken from US4760136A, “Chartreusin derivatives and salts thereof” (Ishihara Sangyo Kaisha, Ltd., priority 1984, dated 1988).

Tests used:
P-388 leukemia cells = test: Antitumor activity: P-388 leukemia cells inoculated intraperitoneally, drug administered intravenously, BDF1 mice; format: in vivo; details: BDF1 mice, P-388 i.p.; for response vs control in vivo at 40 mg/kg / response vs control in vivo at 80 mg/kg / response vs control in vivo at 50 mg/kg / response vs control in vivo at 20 mg/kg: Mus musculus, P388, iv, read-out: T/C (%) of MST; for response vs control in vivo at 80 mg/kg: dose f: 80 mg/kg × 3, i.v. on days 1, 5 and 9; for response vs control in vivo at 50 mg/kg: dose d: 50 mg/kg × 3, i.v. on days 1, 5 and 9; for response vs control in vivo at 20 mg/kg: dose b: 20 mg/kg × 3, i.v. on days 1, 5 and 9
Method: Into BDF1 mice were inoculated intraperitoneally P-388 leukemia cells at a rate of 1×10^6 cells/mouse, and each drug to be tested was administered intravenously on the first, fifth and ninth days after the inoculation. […] The drugs were as follows solutions prepared by adding physiological saline to each of compound Nos. 8, 9, 10, 11, 17, 34, 42, 59, 80 and 134; suspensions prepared by dispersing each of compound Nos. 41, 78, 98, 100, 130, 191, 212, 213, 215, 227 and 230 to 232 and a small amount of sodium carboxymethyl cellulose (Na.CMC) in physiological saline, […]

[1] = Acute toxicity, intravenous (once), ddY mice; format: in vivo; details: mouse, in vivo, iv, formulated per Preparation Example
Text: In Table 7 are shown acute toxicity values (LD50, mg/kg) in ddY mice in the case of intravenously administering (once) each of the compounds of this invention in the form of preparations shown in the Preparation Examples shown in Table 7.

[2] = dose c: 40 mg/kg × 3, i.v. on days 1, 5 and 9

SMILES	response vs control in vivo at 40 mg/kg (P-388 leukemia cells; [2]) [%]	response vs control in vivo at 80 mg/kg (P-388 leukemia cells) [%]	LD50 [1] [mg/kg]	response vs control in vivo at 50 mg/kg (P-388 leukemia cells) [%]	response vs control in vivo at 20 mg/kg (P-388 leukemia cells) [%]	T/C (%) of MST (P-388 leukemia cells; [2]) [%]
CO[C@H]1[C@@H](O)[C@@H](C)O[C@H](O[C@H]2[C@H](Oc3cccc4c(OC(=O)C5CC5C)c5c(=O)oc6ccc(C)c7c(=O)oc(c34)c5c67)O[C@H](C)[C@@H]3OC(c4ccc(Cl)cc4)O[C@@H]32)[C@@H]1O (stereo partly shown) [Compound No. 190]	145	208	≥ 80	–	–	–
CO[C@H]1[C@@H](O)[C@@H](C)O[C@H](O[C@H]2[C@H](Oc3cccc4c(OC(=O)C5CC5C)c5c(=O)oc6ccc(C)c7c(=O)oc(c34)c5c67)O[C@H](C)[C@@H]3OC(C)(C)O[C@@H]32)[C@@H]1O (stereo partly shown) [Compound No. 178]	142	181	≥ 80	–	–	–
C/C=C/C(=O)Oc1c2cccc(O[C@@H]3O[C@H](C)[C@@H]4OC(C)(C)O[C@@H]4[C@H]3O[C@H]3O[C@H](C)[C@H](O)[C@H](OC)[C@H]3O)c2c2oc(=O)c3c(C)ccc4oc(=O)c1c2c43 [compound 200]	168	–	≥ 80	–	–	–
COC1C(O)C(C)OC(OC2C(Oc3cccc4c(OC(=O)CCNC(=O)C(Cl)(Cl)Cl)c5c(=O)oc6ccc(C)c7c(=O)oc(c34)c5c67)OC(C)C3OC(c4cccc(Br)c4)OC32)C1O (stereo not shown) [Compound No. 56]	165	219	≥ 80	–	–	–
COC1C(O)C(C)OC(OC2C(Oc3cccc4c(OC(=O)CCN5CCCC5)c5c(=O)oc6ccc(C)c7c(=O)oc(c34)c5c67)OC(C)C3OC(c4cccc(F)c4)OC32)C1O (stereo not drawn) [Compound No. 34, 6-O-(β-1-pyrrolidinyl-propionyl)-3',4'-O-(m-fluorobenzylidene)-chartreusin phosphate]	140	–	≥ 30	–	–	–
COC1C(O)C(C)OC(OC2C(Oc3cccc4c(OC(=O)CN(C)C(=O)C(F)(F)F)c5c(=O)oc6ccc(C)c7c(=O)oc(c34)c5c67)OC(C)C3OC(C)(C)OC32)C1O (stereo not shown) [compound 86]	–	136	≥ 100	–	–	–
COC(=O)CCC(=O)Oc1c2cccc(O[C@@H]3O[C@H](C)[C@@H]4OC(C)(C)O[C@@H]4[C@H]3O[C@H]3O[C@H](C)[C@H](O)[C@H](OC)[C@H]3O)c2c2oc(=O)c3c(C)ccc4oc(=O)c1c2c43 [compound 202]	174	–	≥ 60	–	–	–
COC1C(O)C(C)OC(OC2C(Oc3cccc4c(OC(=O)CNC(=O)OCc5ccccc5)c5c(=O)oc6ccc(C)c7c(=O)oc(c34)c5c67)OC(C)C3OC(C)(C)OC32)C1O (stereo not shown) [compound 108, 6-O-(N-carbobenzyloxyglycyl)-3',4'-O-isopropylidene-chartreusin]	–	–	≥ 100	163	–	–
COC1C(O)C(C)OC(OC2C(Oc3cccc4c(OC(=O)CCCNC(=O)OCc5ccccc5)c5c(=O)oc6ccc(C)c7c(=O)oc(c34)c5c67)OC(C)C3OC(c4ccccc4)OC32)C1O (stereo not shown) [compound 76]	184	–	≥ 40	–	135	–
COC1C(O)C(C)OC(OC2C(Oc3cccc4c(OC(=O)CCNC=O)c5c(=O)oc6ccc(C)c7c(=O)oc(c34)c5c67)OC(C)C3OC(c4ccc(Cl)cc4Cl)OC32)C1O (stereo not shown) [compound 93]	–	165	≥ 80	–	–	–
COC1C(O)C(C)OC(OC2C(Oc3cccc4c(OC(=O)C(Cc5c[nH]c6ccccc56)NC(=O)OCc5ccccc5)c5c(=O)oc6ccc(C)c7c(=O)oc(c34)c5c67)OC(C)C3OC4(CCCCC4)OC32)C1O (stereo not shown) [compound 133]	–	139	≥ 100	–	–	–
CO[C@H]1[C@@H](O)[C@@H](C)O[C@H](O[C@H]2[C@H](Oc3cccc4c(OC(=O)c5ccc([N+](=O)[O-])cc5)c5c(=O)oc6ccc(C)c7c(=O)oc(c34)c5c67)O[C@H](C)[C@@H]3OC(c4ccccc4)O[C@@H]32)[C@@H]1O (stereo partly shown) [Compound No. 186]	176	–	≥ 80	–	–	–
CO[C@H]1[C@@H](O)[C@@H](C)O[C@H](O[C@H]2[C@H](Oc3cccc4c(OC(=O)CCCCl)c5c(=O)oc6ccc(C)c7c(=O)oc(c34)c5c67)O[C@H](C)[C@@H]3OC(C)(C)O[C@@H]32)[C@@H]1O [compound 204]	174	–	≥ 60	–	–	–
COC1C(O)C(C)OC(OC2C(Oc3cccc4c(OC(=O)CCNC(=O)C(Cl)(Cl)Cl)c5c(=O)oc6ccc(C)c7c(=O)oc(c34)c5c67)OC(C)C3OC(C)(C)OC32)C1O (stereo not drawn) [Compound No. 112, 6-O-(N-Trichloroacetyl-β-Alanyl)-3',4'-O-Isopropylidene-Chartreusin]	–	–	≥ 100	148	–	–
COC1C(O)C(C)OC(OC2C(Oc3cccc4c(OC(=O)CCc5ccccc5)c5c(=O)oc6ccc(C)c7c(=O)oc(c34)c5c67)OC(C)C3OC(c4ccccc4)OC32)C1O (stereo not shown) [Compound No. 154]	214	–	≥ 40	–	205	–
COC1C(O)C(C)OC(OC2C(Oc3cccc4c(OC(=O)CCNC=O)c5c(=O)oc6ccc(C)c7c(=O)oc(c34)c5c67)OC(C)C3OC(CCc4ccccc4)OC32)C1O (stereo not shown) [compound 83]	144	208	≥ 80	–	–	–
COC1C(O)C(C)OC(OC2C(Oc3cccc4c(OC(=O)CCCCCNC(=O)OCc5ccccc5)c5c(=O)oc6ccc(C)c7c(=O)oc(c34)c5c67)OC(C)C3OC(c4ccccc4)OC32)C1O (stereo not shown) [compound 119]	–	–	≥ 40	–	–	153
COc1cccc(C(=O)Oc2c3cccc(O[C@@H]4O[C@H](C)[C@@H]5OC(CCc6ccccc6)O[C@@H]5[C@H]4O[C@H]4O[C@H](C)[C@H](O)[C@H](OC)[C@H]4O)c3c3oc(=O)c4c(C)ccc5oc(=O)c2c3c54)c1 (stereo partly shown) [compound 218]	–	176	≥ 80	–	–	–
COC1C(O)C(C)OC(OC2C(Oc3cccc4c(OC(=O)C5CCCCC5NC(=O)C(F)(F)F)c5c(=O)oc6ccc(C)c7c(=O)oc(c34)c5c67)OC(C)C3OC(c4cccc(F)c4)OC32)C1O (single isomer, unassigned) [Compound No. 27, 6-O-(N-Trifluoroacetyl-2-Amino-Cyclohexanecarbonyl)-3',4'-O-(m-Fluorobenzylidene)-Chartreusin]	–	–	≥ 30	–	179	–
COC1C(O)C(C)OC(OC2C(Oc3cccc4c(OC(=O)C(C)CNC(=O)OCc5ccccc5)c5c(=O)oc6ccc(C)c7c(=O)oc(c34)c5c67)OC(C)C3OC(c4cccc(F)c4)OC32)C1O (stereo not shown) [Compound No. 60]	210	–	≥ 40	–	176	–
CC=CC=CC(=O)Oc1c2cccc(OC3OC(C)C4OC(C)(C)OC4C3OC3OC(C)C(O)C(OC)C3O)c2c2oc(=O)c3c(C)ccc4oc(=O)c1c2c43 (stereo not shown) [compound 238]	130	192	≥ 80	–	–	–
COC1C(O)C(C)OC(OC2C(Oc3cccc4c(OC(=O)C5CCCCC5NC(=O)OCc5ccccc5)c5c(=O)oc6ccc(C)c7c(=O)oc(c34)c5c67)OC(C)C3OC(c4ccccc4)OC32)C1O (stereo not shown) [Compound No. 62]	210	–	≥ 40	–	155	–
COC1C(O)C(C)OC(OC2C(Oc3cccc4c(OC(=O)C(CN)C(C)C)c5c(=O)oc6ccc(C)c7c(=O)oc(c34)c5c67)OC(C)C3OC(c4ccccc4)OC32)C1O (stereo not drawn) [compound 35, 6-O-(α-isopropyl-β-alanyl)-3',4'-O-benzylidene-chartreusin phosphate]	173	–	≥ 40	–	–	–
